Test results: patent publication US12441695B2, “Substituted thiadiazinone dioxide and preparation method therefor, herbicidal composition, and application therefor” (Qingdao Kingagroot Chemical Compound Co., Ltd., priority 2019, dated 2025)

Tests used:
[1] = test system: major crops (wheat, corn, rice, soybean, cotton, oilseed rape, millet, sorghum); assay: Experiment on weeding effect in post-emergence stage (crops); format: in vivo; settings: 600 g/ha active ingredient plus water 450 kg/ha, 3 weeks after application; for corn plant damage level (growth control rate): crop corn; for rice plant damage level (growth control rate): crop rice; for soybean plant damage level (growth control rate): crop soybean
Procedure: (§1) The above growth control rates are fresh weight control rates.
(§2) (1) Experiment on weeding effect in post-emergence stage: monocotyledonous and dicotyledonous weed seeds and major crop seeds (wheat, corn, rice, soybean, cotton, oilseed rape, millet, sorghum) were placed in plastic pots filled with soil, then covered with 0.5-2 cm of soil, allowed to grow in a good greenhouse environment. After 2-3 weeks of sowing, the test plants were treated. The tested compounds of the present invention were respectively dissolved in acetone, then added with Tween 80, diluted with a certain amount of water to obtain a solution with a certain concentration, and sprayed with a spray tower onto the plants.

[2] = test system: monocotyledonous and dicotyledonous weeds; assay: Experiment on weeding effect in post-emergence stage (weeds); format: in vivo; settings: 600 g/ha active ingredient plus water 450 kg/ha, 3 weeks after application, fresh weight control rate; for Amaranthus retroflexus activity level (growth control rate): fomesafen-resistant Amaranthus retroflexus
Excerpt: The activity level criteria for plant damage (i.e., growth control rate) are as follows: • Level 5: growth control rate is above 85%; • Level 4: growth control rate is greater than or equal to 60% and less than 85%; • Level 3: growth control rate is greater than or equal to 40% and less than 60%; • Level 2: growth control rate is greater than or equal to 20% and less than 40%; • Level 1: growth control rate is greater than or equal to […]; • Level 0: growth control rate is less than 5%.
as §1
as §2, with “plants. After the application, the plants were cultured for 3 weeks in the greenhouse, and then the experimental results of the weeding were listed in Table 2.” for “plants.”

SMILES | corn plant damage level (growth control rate) [1] | rice plant damage level (growth control rate) [1] | soybean plant damage level (growth control rate) [1] | Amaranthus retroflexus activity level (growth control rate) [2] | Digitaria sanguinalis activity level (growth control rate) [2] | Echinochloa crus-galli activity level (growth control rate) [2] | Setaria viridis activity level (growth control rate) [2]
CC(C)N1C(=O)c2cc(F)cc(F)c2NS1(=O)=O [Compound 142] | 1 (Level 1: growth control rate is greater than or equal to 500 and less than 200%) | 1 (Level 1: growth control rate is greater than or equal to 500 and less than 200%) | 1 (Level 1: growth control rate is greater than or equal to 500 and less than 200%) | 5 (Level 5: growth control rate is above 85%) | 5 (Level 5: growth control rate is above 85%) | 5 (Level 5: growth control rate is above 85%) | 5 (Level 5: growth control rate is above 85%)
CC(C)N1C(=O)c2cc(F)cc(Br)c2NS1(=O)=O [Compound 143] | 1 (Level 1: growth control rate is greater than or equal to 500 and less than 200%) | 0 (Level 0: growth control rate is less than 5%) | 1 (Level 1: growth control rate is greater than or equal to 500 and less than 200%) | 5 (Level 5: growth control rate is above 85%) | 5 (Level 5: growth control rate is above 85%) | 4 (Level 4: growth control rate is greater than or equal to 60% and less than 85%) | 5 (Level 5: growth control rate is above 85%)
CC(C)N1C(=O)c2cc(F)cc(Cl)c2NS1(=O)=O [Compound 144] | 1 (Level 1: growth control rate is greater than or equal to 500 and less than 200%) | 0 (Level 0: growth control rate is less than 5%) | 1 (Level 1: growth control rate is greater than or equal to 500 and less than 200%) | 5 (Level 5: growth control rate is above 85%) | 5 (Level 5: growth control rate is above 85%) | 5 (Level 5: growth control rate is above 85%) | 5 (Level 5: growth control rate is above 85%)
CC(C)N1C(=O)c2cc(F)cc(I)c2NS1(=O)=O [Compound 145] | 1 (Level 1: growth control rate is greater than or equal to 500 and less than 200%) | 0 (Level 0: growth control rate is less than 5%) | 0 (Level 0: growth control rate is less than 5%) | 4 (Level 4: growth control rate is greater than or equal to 60% and less than 85%) | 4 (Level 4: growth control rate is greater than or equal to 60% and less than 85%) | 4 (Level 4: growth control rate is greater than or equal to 60% and less than 85%) | 5 (Level 5: growth control rate is above 85%)
CC(C)N1C(=O)c2cc(F)c(F)cc2NS1(=O)=O [Compound 146] | 1 (Level 1: growth control rate is greater than or equal to 500 and less than 200%) | 0 (Level 0: growth control rate is less than 5%) | 1 (Level 1: growth control rate is greater than or equal to 500 and less than 200%) | 5 (Level 5: growth control rate is above 85%) | 4 (Level 4: growth control rate is greater than or equal to 60% and less than 85%) | 5 (Level 5: growth control rate is above 85%) | 5 (Level 5: growth control rate is above 85%)
CC(C)N1C(=O)c2cc(F)c(Cl)cc2NS1(=O)=O [Compound 147] | 0 (Level 0: growth control rate is less than 5%) | 0 (Level 0: growth control rate is less than 5%) |  | 3 (Level 3: growth control rate is greater than or equal to 40% and less than 60%) |  |  | 
